Laboratory results reported in the NIST ThermoML archive (doi:10.1016/j.jct.2016.04.008).

Settings: for mass density: 100 kPa, Buoyancy - hydrostatic balance with magnetic suspension - one sinker

CCCn1cc[n+](C)c1.F[B-](F)(F)F [1-propyl-3-methylimidazolium tetrafluoroborate]
Metastable liquid
Settings | mass density [kg/m3]
263.48 K | 1263.82
267.76 K | 1260.36
273.92 K | 1255.4
278.64 K | 1251.98
283.36 K | 1248.34
288.62 K | 1245.07
293.07 K | 1241.48
298.18 K | 1237.91
303.09 K | 1234.13
308.11 K | 1230.24
313.13 K | 1226.49
318 K | 1222.86
322.91 K | 1219.26
328.37 K | 1215.54
333.47 K | 1211.69
337.99 K | 1208.71
342.79 K | 1205.15
348.01 K | 1201.38
353 K | 1198.22
359.33 K | 1194.13
363.9 K | 1190.61

surface tension liquid-gas [mN/m], Metastable liquid
Settings | Ring tensiometer | Willhelmy plate method
273.75 K | – | 50.71
273.79 K | 51.33 | –
278.5 K | – | 50.51
278.59 K | 51.07 | –
283.29 K | – | 50.25
283.35 K | 50.8 | –
288.51 K | – | 49.99
288.6 K | 50.51 | –
293.05 K | – | 49.65
293.08 K | 50.23 | –
298.18 K | 49.96 | –
298.19 K | – | 49.5
303.09 K | 49.6 | 49.11
308.05 K | – | 48.73
308.08 K | 49.16 | –
313.06 K | – | 48.58
313.09 K | 49.02 | –
318 K | 48.72 | 48.32
322.85 K | – | 47.95
322.87 K | 48.32 | –
328.24 K | – | 47.64
328.31 K | 47.95 | –
333.32 K | – | 47.28
333.5 K | 47.54 | –
338.08 K | – | 47.1
338.14 K | 47.43 | –
342.74 K | – | 46.86
342.81 K | 46.8 | –
348.07 K | 46.79 | –
348.15 K | – | 46.48
353.02 K | 46.07 | –
353.21 K | – | 46.16
358.98 K | 45.94 | –
359.05 K | – | 45.89
362.96 K | – | 45.51
363.8 K | 45.67 | –

CCCCCCCCCCn1cc[n+](C)c1.F[B-](F)(F)F [1-decyl-3-methylimidazolium tetrafluoroborate]
surface tension liquid-gas [mN/m], Liquid
Settings | Ring tensiometer | Willhelmy plate method
283.21 K | 30.74 | –
287.98 K | 30.53 | –
288.03 K | – | 30.17
293.33 K | 30.27 | –
293.46 K | – | 29.96
298.21 K | 30.11 | –
298.28 K | – | 29.8
303.14 K | 29.86 | –
303.2 K | – | 29.62
308.05 K | 29.66 | –
308.07 K | – | 29.48
313.12 K | 29.45 | –
313.16 K | – | 29.27
318.14 K | – | 29.09
318.22 K | 29.18 | –
322.9 K | – | 28.89
322.91 K | 28.87 | –
328.39 K | 28.69 | 28.66
333.13 K | – | 28.48
333.2 K | 28.44 | –
338.26 K | – | 28.28
338.28 K | 28.26 | –
343.17 K | 28.02 | –
343.25 K | – | 28.12
348.56 K | – | 27.89
348.57 K | 27.79 | –
353.03 K | – | 27.7
353.07 K | 27.52 | –
357.72 K | – | 27.55
357.75 K | 27.31 | –
363.98 K | 27.11 | 27.32

Liquid
Settings | mass density [kg/m3]
283.26 K | 1083.12
288.04 K | 1079.26
293.48 K | 1075.46
298.32 K | 1072.34
303.26 K | 1069.35
308.12 K | 1064.91
313.23 K | 1061.76
318.16 K | 1058.04
323.03 K | 1054.91
328.43 K | 1051.67
333.15 K | 1048.43
338.41 K | 1044.81
343.37 K | 1041.55
348.69 K | 1038.22
353.21 K | 1034.92
357.87 K | 1032.03
363.98 K | 1028.48

CCCCn1cc[n+](C)c1.F[B-](F)(F)F [1-butyl-3-methylimidazolium tetrafluoroborate]
Liquid
Settings | mass density [kg/m3]
264.16 K | 1227.3
268.12 K | 1224.12
273.71 K | 1219.13
278.76 K | 1215.77
283.03 K | 1212.73
288.51 K | 1208.73
293.06 K | 1205.28
298.21 K | 1201.97
303.18 K | 1198.44
307.95 K | 1195.03
313.18 K | 1191.08
318.12 K | 1187.23
323.27 K | 1183.84
328.23 K | 1179.81
333.27 K | 1176.33
338.88 K | 1172.3
343.23 K | 1169.53
348.21 K | 1166.02
353.25 K | 1162.72
358.57 K | 1159.04
363.9 K | 1155.79

CCCCCn1cc[n+](C)c1.F[B-](F)(F)F [1-methyl-3-pentyl-imidazolium tetrafluoroborate]
Liquid
Settings | mass density [kg/m3]
263.11 K | 1196.7
268.47 K | 1193.07
273.58 K | 1189.42
278.77 K | 1185.81
283.09 K | 1182.43
288.3 K | 1178.63
292.92 K | 1175.26
298.19 K | 1171.74
303.03 K | 1168.37
308.1 K | 1164.61
313 K | 1161.19
318.13 K | 1157.51
323.84 K | 1154.03
328.48 K | 1150.65
333.48 K | 1147.02
338.25 K | 1143.81
342.51 K | 1140.95
348.51 K | 1137.46
354.03 K | 1133.59
358.73 K | 1130.69
365.22 K | 1126.55

surface tension liquid-gas [mN/m], Liquid
Settings | Ring tensiometer | Willhelmy plate method
263.64 K | 43.08 | –
269.34 K | 42.79 | –
273.78 K | 42.67 | –
278.75 K | 42.24 | –
283.06 K | – | 41.81
283.1 K | 42.19 | –
288.31 K | 41.94 | 41.58
292.93 K | – | 41.36
292.94 K | 41.69 | –
298.2 K | 41.4 | 41.1
303.06 K | – | 40.86
303.07 K | 41.17 | –
308.07 K | 40.88 | –
308.1 K | – | 40.6
313.01 K | 40.64 | –
313.04 K | – | 40.36
318.12 K | 40.35 | –
318.17 K | – | 40.07
323.56 K | 40.02 | –
323.62 K | – | 39.72
328.29 K | 39.81 | –
328.31 K | – | 39.45
333.1 K | – | 39.18
333.29 K | 39.49 | –
338.23 K | 39.13 | 38.94
342.51 K | 38.95 | –
342.52 K | – | 38.68
348.1 K | 38.54 | –
348.11 K | – | 38.42
353.72 K | 38.21 | –
353.84 K | – | 38.09
358.24 K | 38.16 | –
358.37 K | – | 37.87
364.6 K | 37.6 | –
364.61 K | – | 37.57
